Data on 14 compounds can be found in patent US20260034138A1, “NOVEL PYRIMIDINYL AND TRIAZINYL SULFONAMIDE DERIVATIVES” (Hoffmann-La Roche Inc., priority 2022, published 2026).

One may read the pIC50 as the IC50 on a negative log10 scale, so that one unit is a factor of ten. The term microsomal CLint denotes the capacity of the preparation to metabolise the compound, expressed as a volume cleared per time.

pIC50: −log10 of the molar value.

Data set [1] deals with human GPR17 short isoform (Homo sapiens, UniProt Q13304). The experiment in a line: GPR17 cAMP assay (hGPR17 cAMP). In kind it is cell-based. The settings on record: CHO-K1 cells stably expressing human GPR17 short isoform; antagonist mode vs EC80 of MDL29,951; forskolin 15 μM; TR-FRET cAMP. The method, then:
GPR17 cAMP Assay Protocol:
CHO-K1 cells stably expressing vector containing untagged human GPR17 short isoform (Roche) were cultured at 37° C./5% CO2 in DMEM (Dulbecco's Modified Eagle Medium): F-12 (1:1) supplemented with 10% foetal bovine serum and 400 μg/ml Geneticin.
Changes in intracellular cyclic adenosine monophosphate (cAMP) levels were quantified using the Nano-TRF Detection Assay kit (Roche Diagnostics, Cat. No. 05214386001). This assay allows for direct cAMP quantification in a homogeneous solution. cAMP is detected based on time-resolved fluorescence energy transfer (TR-FRET) and competitive binding of ruthenylated cAMP and endogenous cAMP to an anti-cAMP monoclonal antibody labeled with AlexaFluor-700. The Ruthenium complex serves as the FRET donor and transfers energy to AlexaFluor-700. The FRET signal is inversely proportional to the CAMP concentration.
CHO-GPR17S cells were detached with Accutase and resuspended in assay buffer consisting of Hank's Balanced Salt Solution (HBSS), 10 mM HEPES (4-(2-hydroxyethyl) piperazine-1-ethanesulfonic acid solution) and 0.1% bovine serum albumin (pH 7.4). The cells were seeded in black 384-well plates (Corning) at a density of 10'000 cells/20 μl assay buffer until the addition of compounds.
Test antagonist compounds were serially diluted in dimethyl sulfoxide (DMSO) and spotted in 384-well plates. The compounds were then diluted in HBSS buffer supplemented with an EC80 concentration of MDL29,951 (3-(2-Carboxy-4,6-dichloroindol-3-yl) propionic acid) (GPR17 agonist) plus 3-Isobutyl-1-methylxanthine (IBMX) (0.5 mM final concentration) and added to the cells at room temperature. Forskolin (15 μM final concentration) was added 5 minutes after the test compounds and the cells were incubated at room temperature for 30 minutes. The assay was stopped by adding cAMP detection mix (containing detergents for cell lysis) for 90 minutes at room temperature.
Cellular cAMP was measured using a Paradigm reader (Molecular Devices). The raw data was used to calculate the FRET signal based on the assay's P-factor as per cAMP kit instructions. The data was normalized to the maximal activity of a reference antagonist and dose response curves were fitted to the percent activity of the test compounds using a sigmoidal dose response model (Genedata Screener).
Results in the hGPR17 cAMP assay are provided for compounds of formula I in Table 1
(cAMP levels reflect the balance of adenylyl cyclase and phosphodiesterase activity.)

The nature of data set [2]: Microsome Clearance Assay. In kind it is in vitro ADME. To be noted: human microsomes 0.5 mg/mL plus NADPH, 37° C., test compound 1 microM final. The method, then:
Microsome Clearance Assay Protocol:
Incubations at a test compound of 1 mM in microsomes (0.5 mg/mL) plus cofactor NADPH are performed in 96 well plates at 37° C. on a TECAN (Tecan Group Ltd, Switzerland) automated liquid handling system. The final concentration of the test compound in the incubation is 1 microM. After a 10 minutes preincubation step of the test compound with the microsomes, the enzymatic reaction is started by the addition of cofactors. At 1, 3, 6, 9, 15, 25, 35 and 45 minutes, aliquots of the incubations are removed and quenched with 1:3 (v/v) acetonitrile containing internal standards. Samples are then cooled and centrifuged before analysis of the supernatant by LC-MS/MS.
Reference compounds were tested against exemplified compounds for their Microsome Clearance to evaluate metabolite stability.

human GPR17 short isoform, sequence (Q13304 29-367): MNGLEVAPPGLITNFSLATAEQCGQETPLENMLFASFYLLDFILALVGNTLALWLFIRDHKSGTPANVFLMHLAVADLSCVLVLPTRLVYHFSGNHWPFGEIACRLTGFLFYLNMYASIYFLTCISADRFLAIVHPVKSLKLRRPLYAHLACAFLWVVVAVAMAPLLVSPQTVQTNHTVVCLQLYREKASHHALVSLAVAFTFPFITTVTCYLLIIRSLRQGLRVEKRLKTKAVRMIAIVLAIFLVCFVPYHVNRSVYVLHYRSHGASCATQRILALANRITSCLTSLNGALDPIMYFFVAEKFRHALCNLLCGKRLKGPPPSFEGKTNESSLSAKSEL

On to `CCCc1ncc(NS(=O)(=O)c2c[nH]c3cc(Cl)ccc23)c(OC)n1` [Example 1, 6-chloro-N-(4-methoxy-2-propyl-pyrimidin-5-yl)-1H-indole-3-sulfonamide], for which, in data set [1], the pIC50 is 6.11.
Same read-out and setting: in the case of `CCc1ncc(NS(=O)(=O)c2c[nH]c3cc(Cl)ccc23)c(OC)n1` [Example 2, 6-chloro-N-(2-ethyl-4-methoxy-pyrimidin-5-yl)-1H-indole-3-sulfonamide] it was 6.20.
For the compound `COc1nc(OC(F)F)ncc1NS(=O)(=O)c1c[nH]c2cc(Cl)ccc12` [Example 3, 6-chloro-N-[2-(difluoromethoxy)-4-methoxy-pyrimidin-5-yl]-1H-indole-3-sulfonamide], in data set [1], the pIC50 was 6.80.
As to `COc1nc(OCC(F)F)ncc1NS(=O)(=O)c1c[nH]c2nc(Cl)ccc12` [Example 4, 6-chloro-N-[2-(2,2-difluoroethoxy)-4-methoxy-pyrimidin-5-yl]-1H-pyrrolo[2,3-b]pyridine-3-sulfonamide], the microsomal CLint at 1 microM in data set [2] was 10 µL/min/mg. In data set [1], this compound had a pIC50 of 6.34.
`O=S(=O)(Nc1cnc(OCC(F)F)nc1OC(F)F)c1c[nH]c2cc(Cl)ccc12` [Example 5, 6-chloro-N-[2-(2,2-difluoroethoxy)-4-(difluoromethoxy)pyrimidin-5-yl]-1H-indole-3-sulfonamide] gave a pIC50 in data set [1] of 6.76.
Still for that read-out and setting: in the case of `O=S(=O)(Nc1cnc(Cl)nc1Cl)c1c[nH]c2cc(Cl)ccc12` [Example 6, 6-chloro-N-(2,4-dichloropyrimidin-5-yl)-1H-indole-3-sulfonamide] it was 5.92; in that of `COc1nc(OCCF)ncc1NS(=O)(=O)c1c[nH]c2cc(Cl)ccc12` [Example 7, 6-chloro-N-(2-(2-fluoroethoxy)-4-methoxypyrimidin-5-yl)-1H-indole-3-sulfonamide], 6.14.
Compound `COc1nc(OCC(F)F)ncc1NS(=O)(=O)c1c[nH]c2cc(Cl)ccc12` [Example 8, 6-chloro-N-(2-(2,2-difluoroethoxy)-4-methoxypyrimidin-5-yl)-1H-indole-3-sulfonamide] had a pIC50 in data set [1] of 6.92.
The same measure, in the same setting: in the case of `COc1nc(OCC(F)F)ncc1NS(=O)(=O)c1c[nH]c2cc(Br)ccc12` [Example 9, 6-bromo-N-[2-(2,2-difluoroethoxy)-4-methoxy-pyrimidin-5-yl]-1H-indole-3-sulfonamide] it was 7.28; in that of `COc1nc(OCC(F)F)ncc1NS(=O)(=O)c1c[nH]c2nc(Br)ccc12` [Example 10, 6-bromo-N-[2-(2,2-difluoroethoxy)-4-methoxy-pyrimidin-5-yl]-1H-pyrrolo[2,3-b]pyridine-3-sulfonamide], 6.78.
The same measure, in the same setting: in the case of `COc1nc(OCC(F)F)ncc1NS(=O)(=O)c1c[nH]c2cc(C(F)(F)F)ccc12` [Example 11, N-[2-(2,2-difluoroethoxy)-4-methoxy-pyrimidin-5-yl]-6-(trifluoromethyl)-1H-indole-3-sulfonamide] it was 6.46.
Consider `COc1nc(NS(=O)(=O)c2c[nH]c3cc(Cl)ccc23)nnc1CC(F)F` [Example 12, 6-chloro-N-[6-(2,2-difluoroethyl)-5-methoxy-1,2,4-triazin-3-yl]-1H-indole-3-sulfonamide], for which, in data set [2], the microsomal CLint at 1 microM came out at 10 µL/min/mg. The compound further showed a negative logarithm of the IC50 (pIC50) in data set [1] of 6.04.
Regarding `COc1nc(NS(=O)(=O)c2c[nH]c3cc(Cl)ccc23)nnc1C` [Example 13, 6-chloro-N-(5-methoxy-6-methyl-1,2,4-triazin-3-yl)-1H-indole-3-sulfonamide], the pIC50 in data set [1] is 5.28.
For the compound `COc1nc(OCC(F)F)c(F)cc1NS(=O)(=O)c1c[nH]c2nc(Cl)ccc12` [RE-A, 6-chloro-N-[6-(2,2-difluoroethoxy)-5-fluoro-2-methoxy-3-pyridyl]-1H-pyrrolo[2,3-b]pyridine-3-sulfonamide, reference compound], the microsomal CLint at 1 microM in data set [2] is 41 µL/min/mg.
